From patent US20260176290A1, “INHIBITORS OF KRAS(G12D)” (Ranok Therapeutics (Hangzhou) Co. Ltd., priority 2022, published 2026)

Tests used:
[1] = biological target: T1, KRAS (G12D)/SOS1 (Homo sapiens, UniProt P01116, G12D); experiment: KRAS (G12D)/SOS1 homogeneous time-resolved fluorescence (HTRF) assay; type: binding; details: absence of GTP, 4° C. for 3 hr
T1 construct: purchased Cisbio 63ADK000CB17PEH
Procedure: 3-fold serial dilutions of each test compound were prepared ranging from 20 μM to 1.02 nM. The test compound was mixed and incubated with reaction components, incubated in a sealed plate at 4° C. for 3 hr and fluorescence was measured using a PerkinElmer Envision plate reader. […]

[2] = test system: AGS gastric carcinoma cells [heterozygous G12D]; experiment: Cancer cell line proliferation (CellTiter-Glo), AGS; type: cell-based; details: Homo sapiens, 72 hr, read-out: CTG(IC50), ABS-72 H(nM) AGS
Procedure: (§1) The following cancer cell lines were employed: AGS gastric carcinoma [heterozygous G12D] (ATCC, CRL-1739); A-427 lung carcinoma [heterozygous G12D] (ATCC, HTB-53); ASPC1 pancreatic adenocarcinoma [homozygous G12D] (ATCC, CRL-1682) and SW1990 pancreatic adenocarcinoma [homozygous G12D] (ATCC CRL-2172). Cell lines were cultured essentially according to ATCC recommendations.
(§2) AGS, A-427, ASPC1, SW1990, and GP2D cells were plated in 96-well tissue culture plates at 4,000 cells/well and incubated at 37° C./5% CO2 for 72 hr in 100 μl of media. 3-fold serial dilutions of each test compound were prepared ranging from 20 μM to 1.02 nM. Each cell line was then treated with test compounds at various concentrations with a final concentration of 0.5% DMSO/well, and then incubated at 37° C./5% CO2 for 72 hr. 100 μl of CellTiter-Glo® Reagent (Promega Corporation, Madison, WI) was added to each well and processed according manufacturer's protocol. Results were analyzed and IC50 5 values were calculated in GraphPad 7 software.

[3] = test system: A-427 lung carcinoma cells [heterozygous G12D]; experiment: Cancer cell line proliferation (CellTiter-Glo), A-427; type: cell-based; details: Homo sapiens, A427 cells, 72 hr, read-out: CTG(IC50), ABS-72 H(nM) A427
Procedure: as §1, §2

[4] = test system: ASPC1 pancreatic adenocarcinoma cells [homozygous G12D]; experiment: Cancer cell line proliferation (CellTiter-Glo), ASPC1; type: cell-based; details: Homo sapiens, ASPC-1 cells, 72 hr, read-out: CTG(IC50), ABS-72 H(nM) ASPC-1
Procedure: as §1, §2

[5] = test system: SW1990 pancreatic adenocarcinoma cells [homozygous G12D]; experiment: Cancer cell line proliferation (CellTiter-Glo), SW1990; type: cell-based; details: Homo sapiens, 72 hr, read-out: CTG(IC50), ABS-72 H(nM) SW1990
Procedure: as §1, §2

[6] = Oral bioavailability in CD-1 mice; details: male, CD-1, mouse, blood
Procedure: (§3) CD-1 mice were randomly assigned to 6 groups with 3 male mice in each compound group. […] Compounds were orally administered (PO) in a single dose to each mouse in its group. Blood samples were taken within 72 hours. Bioavailability (F %) was determined and by liquid chromatography-mass spectrometry (LC-MS/MS).

[7] = in vivo; details: male, CD-1, mouse, po
Procedure: as §3

T1 sequence (P01116 1-188 isoform P01116-2 G12D): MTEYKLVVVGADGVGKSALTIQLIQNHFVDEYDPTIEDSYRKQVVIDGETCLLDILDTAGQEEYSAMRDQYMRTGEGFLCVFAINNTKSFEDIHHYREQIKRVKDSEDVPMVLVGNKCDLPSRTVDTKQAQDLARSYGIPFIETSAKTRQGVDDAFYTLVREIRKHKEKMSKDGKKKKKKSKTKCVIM

| SMILES | IC50 [1] [nM] | IC50 [2] [nM] | IC50 [3] [nM] | IC50 [4] [nM] | IC50 [5] [nM] | bioavailability [6] [%] | bioavailability ([6]; 25 mg/kg) [%] | bioavailability [7] [%] |
| --- | --- | --- | --- | --- | --- | --- | --- | --- |
| C#Cc1c(F)ccc2cc(O)cc(-c3nc(OC)c4c(N5CC6CCC(C5)N6)nc(OCC5(CN6CCC7CC76)CC5)nc4c3F)c12 (centres unmarked) [Example 43] | < 100 | < 100 | 100 to 1000 | < 100 | < 100 | 2.37 | – | – |
| C#Cc1c(F)ccc2cc(O)cc(-c3nc(OC)c4c(N5CC6CCC(C5)N6)nc(OCC5(CN6CCC6)CC5)nc4c3F)c12 [Ref. 2, reference compound] | < 100 | < 100 | – | 100 to 1000 | 100 to 1000 | – | 0.15 | – |
| C#Cc1c(F)ccc2cc(O)cc(-c3nc(OC)c4c(N5CC6CCC(C5)N6)nc(OCC5(CN6CC7C(F)C7C6)CC5)nc4c3F)c12 (centres unmarked) [Example 155] | – | – | – | – | – | – | – | 8.03 |
| C#Cc1c(F)ccc2cc(O)cc(-c3nc(OC)c4c(N5CC6CCC(C5)N6)nc(OCC5(CN6CCC(F)CC6)CC5)nc4c3F)c12 [Example 19] | < 100 | < 100 | < 100 | < 100 | < 100 | 9.39 | – | – |
| C#Cc1c(F)ccc2cc(O)cc(-c3ncc4c(N5CC6CCC(C5)N6)nc(OCC5(CN6CCC(C(F)(F)F)CC6)CC5)nc4c3F)c12 [Example 14] | < 100 | < 100 | < 100 | < 100 | < 100 | 5.81 | – | – |
| C#Cc1c(F)ccc2cc(O)cc(-c3nc(OC)c4c(N5CC6CCC(C5)N6)nc(OCC5(CN6CC7C(C#N)C7C6)CC5)nc4c3F)c12 (centres unmarked) [Example 51] | < 100 | < 100 | – | < 100 | < 100 | 2.3 | – | – |
| C#Cc1c(F)ccc2cc(O)cc(-c3nc(OC)c4c(N5CC6CCC(C5)N6)nc(OCC5(CN6CCCC6)CC5)nc4c3F)c12 [Ref. 3, reference compound] | – | < 100 | – | – | – | 0.23 | – | – |
| C#Cc1c(F)ccc2cc(O)cc(-c3ncc4c(N5CC6CCC(C5)N6)nc(OCC5(CN6CC7C(F)C7C6)CC5)nc4c3F)c12 (centres unmarked) [Example 149] | – | – | – | – | – | – | – | 12.9 |
| C#Cc1c(F)ccc2cc(O)cc(-c3nc(OC)c4c(N5CC6CCC(C5)N6C(=O)OC(C)OC(C)=O)nc(OCC5(CN6CC7CC7C6)CC5)nc4c3F)c12 (centres unmarked) [Example 146] | – | – | – | – | – | – | – | 8.3 |
| C#Cc1c(F)ccc2cc(O)cc(-c3nc(OC)c4c(N5CC6CCC(C5)N6)nc(OCC5(CN6CC7C(C6)C7(F)F)CC5)nc4c3F)c12 (centres unmarked) [Example 49] | < 100 | < 100 | – | < 100 | < 100 | 3.82 | – | – |
| [2H]C([2H])([2H])Oc1nc(-c2cc(O)cc3ccc(F)c(C#C)c23)c(F)c2nc(OCC3(CN4CC5CC5C4)CC3)nc(N3CC4CCC(C3)N4)c12 (centres unmarked) [Example 4] | < 100 | < 100 | < 100 | < 100 | < 100 | – | 5.4 | – |
| C#Cc1c(F)ccc2cc(O)cc(-c3ncc4c(N5CC6CCC(C5)N6)nc(OCC5(CN6CC7C(C#N)C7C6)CC5)nc4c3F)c12 (centres unmarked) [Example 44] | < 100 | < 100 | 100 to 1000 | < 100 | < 100 | 2.38 | – | – |
| C#Cc1c(F)ccc2cc(O)cc(-c3nc(OC)c4c(N5CC6CCC(C5)N6)nc(OCC5(CN6CCC(C#N)C6)CC5)nc4c3F)c12 (centres unmarked) [Example 38] | < 100 | < 100 | – | < 100 | < 100 | 1.8 | – | – |
| C#Cc1c(F)ccc2cc(N)cc(-c3nc(OC)c4c(N5CC6CCC(C5)N6)nc(OCC5(CN6CC7CC7C6)CC5)nc4c3F)c12 (centres unmarked) [Example 184] | – | – | – | – | – | – | – | 5.75 |
| C#Cc1c(F)ccc2cc(O)cc(-c3nc(OC)c4c(N5CC6CCC(C5)N6C(=O)OCOC(=O)C(C)C)nc(OCC5(CN6CC7CC7C6)CC5)nc4c3F)c12 (centres unmarked) [Example 148] | – | – | – | – | – | – | – | 6.8 |
| C#Cc1c(F)ccc2cc(O)cc(-c3ncc4c(N5CC6CCC(C5)N6)nc(OCC5(CN6CCC(F)CC6)CC5)nc4c3F)c12 [Example 1, 4-(4-(3,8-diazabicyclo[3.2.1]octan-3-yl)-8-fluoro-2-((1-((4-fluoropiperidin-1-yl)methyl)cyclopropyl)methoxy)pyrido[4,3-d]pyrimidin-7-yl)-5-ethynyl-6-fluoronaphthalen-2-ol] | < 100 | < 100 | < 100 | < 100 | < 100 | – | 0.8 | – |
| COc1nc(-c2cc(N)cc(Cl)c2C(F)(F)F)c(F)c2nc(OCC3(CN4CC5CC5C4)CC3)nc(N3CC4CCC(C3)N4)c12 (centres unmarked) [Example 165] | – | – | – | – | – | – | – | 13.8 |
| C#Cc1cccc2cc(O)cc(-c3ncc4c(N5CC6CCC(C5)N6)nc(OCC5(CN6CC7C(C6)C7(F)F)CC5)nc4c3F)c12 (centres unmarked) [Example 100] | – | – | – | – | – | – | – | 1.7 |
| C#Cc1c(F)ccc2cc(O)cc(-c3nc(C)c4c(N5CC6CCC(C5)N6)nc(OCC5(CN6CCC(C(F)(F)F)CC6)CC5)nc4c3F)c12 [Example 39] | < 100 | < 100 | 100 to 1000 | < 100 | < 100 | – | – | – |
| [2H]C([2H])([2H])Oc1nc(-c2cc(O)cc3ccc(F)c(C#C)c23)c(F)c2nc(OCC3(CN4CCC(C(F)(F)F)CC4)CC3)nc(N3CC4CCC(C3)N4)c12 [Example 30] | < 100 | < 100 | < 100 | < 100 | < 100 | – | – | – |
| C#Cc1c(F)ccc2cc(O)cc(-c3nc(Cl)c4c(N5CC6CCC(C5)N6)nc(OCC5(CN6CCC(C(F)(F)F)CC6)CC5)nc4c3F)c12 [Example 36] | < 100 | < 100 | 100 to 1000 | < 100 | < 100 | – | – | – |
| C#Cc1c(F)ccc2cc(O)cc(-c3nc(OC4CC4)c4c(N5CC6CCC(C5)N6)nc(OCC5(CN6CC7CC7C6)CC5)nc4c3F)c12 (centres unmarked) [Example 40] | < 100 | < 100 | 100 to 1000 | < 100 | < 100 | – | – | – |
| C#Cc1c(F)ccc2cc(O)cc(-c3nc(OC)c4c(N5CC6CCC(C5)N6)nc(OCC5(CN6CCOCC6)CC5)nc4c3F)c12 [Example 33] | < 100 | < 100 | 100 to 1000 | < 100 | < 100 | – | – | – |
| C#Cc1c(F)ccc2c(F)c(O)cc(-c3nc(OC)c4c(N5CC6CCC(C5)N6)nc(OCC5(CN6CC7CC7C6)CC5)nc4c3F)c12 (centres unmarked) [Example 168] | – | – | – | – | – | – | – | 13.6 |
| C#Cc1c(F)ccc2cc(O)cc(-c3nc(OC)c4c(N5CC6CCC(C5)N6)nc(OCC5(CN(C)C)CC5)nc4c3F)c12 [Ref. 4, reference compound] | – | < 100 | – | – | – | 0.23 | – | – |
| C#Cc1cccc2cc(O)cc(-c3ncc4c(N5CC6CCC(C5)N6)nc(OCC5(CN6CCC(F)CC6)CC5)nc4c3F)c12 [Example 7] | < 100 | < 100 | < 100 | < 100 | < 100 | – | – | – |
| C#Cc1c(F)ccc2cc(O)cc(-c3nc(OC)c4c(N5CC6CCC(C5)N6)nc(OCC5(CN6CC7CC7C6)CC5)nc4c3F)c12 (centres unmarked) [Example 2] | < 100 | < 100 | < 100 | < 100 | < 100 | – | – | – |
| C#Cc1c(F)ccc2cc(O)cc(-c3ncc4c(N5CC6CCC(C5)N6)nc(OCC5(CN6CC7CC7C6)CC5)nc4c3F)c12 (centres unmarked) [Example 13] | < 100 | < 100 | < 100 | < 100 | < 100 | 1.98 | – | – |
| C#Cc1c(F)ccc2cc(O)cc(-c3ncc4c(N5CC6CCC(C5)N6)nc(OCC5(CN6CC7C(C6)C7C(F)(F)F)CC5)nc4c3F)c12 (centres unmarked) [Example 37] | < 100 | < 100 | 100 to 1000 | < 100 | < 100 | 10.6 | – | – |
| [2H]C([2H])([2H])Oc1nc(-c2cc(O)cc3ccc(F)c(C#C)c23)c(F)c2nc(OCC3(CN4CC5C(F)C5C4)CC3)nc(N3CC4CCC(C3)N4)c12 (centres unmarked) [Example 167] | – | – | – | – | – | – | – | 7.14 |
